In assay [1] the test system is Human immunodeficiency virus 1. As to the kind of experiment: Binding affinity to HIV1 His-tagged N-terminal heptad repeat of envelope glycoprotein gp41 assessed as recovery of N36 N43D mutant-drug complex after 2 hrs by LC-MS analysis. More on the design: concentration or dose not given beside the values.
Assay [2] concerns Human immunodeficiency virus 1. As to the kind of experiment: Binding affinity to HIV1 His-tagged N-terminal heptad repeat of envelope glycoprotein gp41 assessed as recovery of N36-drug complex at 10 uM after 2 hrs by LC-MS analysis.
In assay [3] the test system is Human immunodeficiency virus 1. As to the kind of experiment: Thermal stability of HIV1 envelope glycoprotein gp41 His-tagged N-terminal heptad repeat N36-drug complex assessed as thermal unfolding transition state by measuring molar ellipticity at 4 to 90 degC by circular dichroic spectra analysis.
For assay [4], the system named is Human immunodeficiency virus 1. As to the kind of experiment: Binding affinity to HIV1 His-tagged N-terminal heptad repeat of envelope glycoprotein gp41 assessed as recovery of N36-drug complex at 0.6 uM after 2 hrs by LC-MS analysis.
The subject of assay [5] is Human immunodeficiency virus 1. The assay is described as follows: Thermal stability of HIV1 envelope glycoprotein gp41 His-tagged N-terminal heptad repeat N36 N43D mutant-drug complex assessed as thermal unfolding transition state by measuring molar ellipticity at 4 to 90 degC by circular dichroic spectra analysis.
The subject of assay [6] is Envelope glycoprotein gp160 (Human immunodeficiency virus 1), Q72502 [V38A]. The assay is described as follows: Thermal stability of HIV1 envelope glycoprotein gp41 His-tagged N-terminal heptad repeat N36 V38A mutant-drug complex assessed as thermal unfolding transition state by measuring molar ellipticity at 4 to 90 degC by circular dichroic spectra analysis.
Assay [7] deals with Human immunodeficiency virus 1. The assay is described as follows: Antiviral activity against HIV1 NL4-3 harboring gp41 D36G mutant infected in human HeLa cells expressing CD4-LTR-beta-gal assessed as inhibition of viral replication after 48 hrs by MAGI assay. The format is functional, organism-based.
Assay [8] concerns Envelope glycoprotein gp160 (Human immunodeficiency virus 1), Q72502 [V38A]. As to the kind of experiment: Binding affinity to HIV1 His-tagged N-terminal heptad repeat of envelope glycoprotein gp41 assessed as recovery of N36 V38A mutant-drug complex after 2 hrs by LC-MS analysis. Also noted: concentration or dose not given beside the values.
The subject of assay [9] is Human immunodeficiency virus 1. As to the kind of experiment: Binding affinity to HIV1 His-tagged N-terminal heptad repeat of envelope glycoprotein gp41 assessed as recovery of N36-drug complex at 6 uM after 2 hrs by LC-MS analysis.
The test system of assay [10] is Human immunodeficiency virus 1. As to the kind of experiment: Binding affinity to HIV1 His-tagged N-terminal heptad repeat of envelope glycoprotein gp41 assessed as recovery of N36-drug complex at 1 uM after 2 hrs by LC-MS analysis.
Assay [11] has as its system Human immunodeficiency virus 1. As to the kind of experiment: Binding affinity to HIV1 His-tagged N-terminal heptad repeat of envelope glycoprotein gp41 assessed as recovery of N36-drug complex after 2 hrs by LC-MS analysis. More on the design: concentration or dose not given beside the values.

Each structure is given as a SMILES string. Residues, ends and D or L forms follow the SMILES beside them.

As usually defined, the Tm is the temperature at the midpoint of the melting transition. One may read the EC50 as the midpoint of the concentration-response curve. For `CC[C@H](C)[C@H](NC(=O)[C@H](CCCCN)NC(=O)[C@H](CCCCN)NC(=O)[C@H](CC(=O)O)NC(=O)[C@H](Cc1c[nH]c2ccccc12)NC(=O)[C@H](CCC(=O)O)NC(=O)[C@H](CCC(=O)O)NC(=O)[C@H](Cc1c[nH]c2ccccc12)NC(C)=O)C(=O)N[C@@H](CCC(=O)O)C(=O)N[C@@H](CCC(=O)O)C(=O)N[C@@H](Cc1ccc(O)cc1)C(=O)N[C@H](C(=O)N[C@@H](CCCCN)C(=O)N[C@@H](CCCCN)C(=O)N[C@H](C(=O)N[C@@H](CCC(=O)O)C(=O)N[C@@H](CCC(=O)O)C(=O)N[C@@H](CC(C)C)C(=O)N[C@H](C(=O)N[C@@H](CCCCN)C(=O)N[C@@H](CCCCN)C(=O)N[C@H](C(=O)N[C@@H](CCC(=O)O)C(=O)N[C@@H](CCC(=O)O)C(=O)N[C@@H](CCC(N)=O)C(=O)N[C@@H](CCC(N)=O)C(=O)N[C@@H](CCCCN)C(=O)N[C@@H](CCCCN)C(=O)N[C@@H](CC(N)=O)C(=O)N[C@@H](CCC(=O)O)C(=O)N[C@@H](CCC(=O)O)C(=O)N[C@@H](CCC(=O)O)C(=O)N[C@@H](CC(C)C)C(=O)N[C@@H](CCCCN)C(=O)N[C@@H](CCCCN)C(N)=O)[C@@H](C)O)[C@@H](C)CC)[C@@H](C)CC)[C@@H](C)O` (Ac-WEEWDKKIEEYTKKIEELIKKTEEQQKKNEEELKK-NH2), the Activity came out at 9.4% in assay [1]; 9% in [2]; 5.7% in assay [4]; 10.8% in assay [8]; 12.8% in assay [9]; 11.7% in assay [10]. Moreover, the figures for the midpoint of thermal melting (Tm) in [3], in assay [5] and in assay [6] were 79.7 °C, 67.5 °C and 70.4 °C, respectively. Also, the EC50 in [7] came to 0.8 nM.

On to `CC[C@H](C)[C@H](NC(=O)[C@H](CC(C)C)NC(=O)[C@H](CCC(=O)O)NC(=O)[C@H](CCC(=O)O)NC(=O)[C@@H](NC(=O)[C@H](CCCCN)NC(=O)[C@H](CCCCN)NC(=O)[C@@H](NC(=O)[C@H](Cc1ccc(O)cc1)NC(=O)[C@H](CCC(=O)O)NC(=O)[C@H](CCC(=O)O)NC(=O)[C@@H](NC(=O)[C@H](CCCCN)NC(=O)[C@H](CCCCN)NC(=O)[C@H](CC(=O)O)NC(=O)[C@H](Cc1c[nH]c2ccccc12)NC(=O)[C@H](CCC(=O)O)NC(=O)[C@H](CCC(=O)O)NC(=O)[C@H](Cc1c[nH]c2ccccc12)NC(C)=O)[C@@H](C)CC)[C@@H](C)O)[C@@H](C)CC)C(=O)N[C@@H](CCCCN)C(=O)N[C@@H](CCCCN)C(=O)N[C@@H](C)C(=O)N[C@@H](CCC(=O)O)C(=O)N[C@@H](CCC(=O)O)C(=O)N[C@@H](CCC(N)=O)C(=O)N[C@@H](CCC(N)=O)C(=O)N[C@@H](CCCCN)C(=O)N[C@@H](CCCCN)C(=O)N[C@@H](CC(N)=O)C(=O)N[C@@H](CCC(=O)O)C(=O)N[C@@H](CCC(=O)O)C(=O)N[C@@H](CCC(=O)O)C(=O)N[C@@H](CC(C)C)C(=O)N[C@@H](CCCCN)C(=O)N[C@@H](CCCCN)C(N)=O` (Ac-WEEWDKKIEEYTKKIEELIKKAEEQQKKNEEELKK-NH2), for which the Activity turned out to be 12.9% in assay [1]; 30.7% in assay [2]; 5.3% in [4]; 11.4% in assay [8]; 22.5% in assay [9]; 11.5% in assay [10]. Also, the Tm in assay [3] came to 86.4 °C; in assay [5], 74.4 °C; in assay [6], 76.1 °C. In [7], the EC50 is 0.2 nM.

As to `CC[C@H](C)[C@H](NC(=O)[C@H](CC(C)C)NC(=O)[C@H](CCC(=O)O)NC(=O)[C@H](CCC(=O)O)NC(=O)[C@@H](NC(=O)[C@H](CCCCN)NC(=O)[C@H](CCCCN)NC(=O)[C@@H](NC(=O)[C@H](Cc1ccc(O)cc1)NC(=O)[C@H](CCC(=O)O)NC(=O)[C@H](CCC(=O)O)NC(=O)[C@@H](NC(=O)[C@H](CCCCN)NC(=O)[C@H](CCCCN)NC(=O)[C@H](CC(=O)O)NC(=O)[C@H](Cc1c[nH]c2ccccc12)NC(=O)[C@H](CCC(=O)O)NC(=O)[C@H](CCC(=O)O)NC(=O)[C@H](Cc1c[nH]c2ccccc12)NC(C)=O)[C@@H](C)CC)[C@@H](C)O)[C@@H](C)CC)C(=O)N[C@@H](CCCCN)C(=O)N[C@@H](CCCCN)C(=O)N[C@@H](CO)C(=O)N[C@@H](CCC(=O)O)C(=O)N[C@@H](CCC(=O)O)C(=O)N[C@@H](CCC(N)=O)C(=O)N[C@@H](CCC(N)=O)C(=O)N[C@@H](CCCCN)C(=O)N[C@@H](CCCCN)C(=O)N[C@@H](CC(N)=O)C(=O)N[C@@H](CCC(=O)O)C(=O)N[C@@H](CCC(=O)O)C(=O)N[C@@H](CCC(=O)O)C(=O)N[C@@H](CC(C)C)C(=O)N[C@@H](CCCCN)C(=O)N[C@@H](CCCCN)C(N)=O` (Ac-WEEWDKKIEEYTKKIEELIKKSEEQQKKNEEELKK-NH2), the Activity in assay [1] was found to be 10.9%; in [2] it was 22.8%; in assay [4] it was 5.8%; in assay [8], 11.8%; in assay [9], 19.2%; in assay [10], 11.5%. Also, in assay [11], the Activity was determined as 10.1%. Also, the Tm in [3] was determined as 81.6 °C; in assay [5] it was 69.9 °C; in [6] it was 72.6 °C. Besides, in [7], the EC50 came to 1 nM.

On to `CC[C@H](C)[C@H](NC(=O)[C@H](CC(C)C)NC(=O)[C@H](CCC(=O)O)NC(=O)[C@H](CCC(=O)O)NC(=O)[C@@H](NC(=O)[C@H](CCCCN)NC(=O)[C@H](CCCCN)NC(=O)[C@@H](NC(=O)[C@H](Cc1ccc(O)cc1)NC(=O)[C@H](CCC(=O)O)NC(=O)[C@H](CCC(=O)O)NC(=O)[C@@H](NC(=O)[C@H](CCCCN)NC(=O)[C@H](CCCCN)NC(=O)[C@H](CC(=O)O)NC(=O)[C@H](Cc1c[nH]c2ccccc12)NC(=O)[C@H](CCC(=O)O)NC(=O)[C@H](CCC(=O)O)NC(=O)[C@H](Cc1c[nH]c2ccccc12)NC(C)=O)[C@@H](C)CC)[C@@H](C)O)[C@@H](C)CC)C(=O)N[C@@H](CCCCN)C(=O)N[C@@H](CCCCN)C(=O)N[C@@H](CC(C)C)C(=O)N[C@@H](CCC(=O)O)C(=O)N[C@@H](CCC(=O)O)C(=O)N[C@@H](CCC(N)=O)C(=O)N[C@@H](CCC(N)=O)C(=O)N[C@@H](CCCCN)C(=O)N[C@@H](CCCCN)C(=O)N[C@@H](CC(N)=O)C(=O)N[C@@H](CCC(=O)O)C(=O)N[C@@H](CCC(=O)O)C(=O)N[C@@H](CCC(=O)O)C(=O)N[C@@H](CC(C)C)C(=O)N[C@@H](CCCCN)C(=O)N[C@@H](CCCCN)C(N)=O` (Ac-WEEWDKKIEEYTKKIEELIKKLEEQQKKNEEELKK-NH2), for which the Activity in assay [1] was 12.9%; in assay [2], 4.7%; in assay [4], 6.9%; in assay [8] it was 10.3%; in assay [9] it was 7.6%; in assay [10], 11.3%. In addition, the results for the melting temperature (Tm) in assay [3], in [5] and in [6] were 83.2 °C, 80 °C and 75 °C, respectively. For the same compound, the EC50 in assay [7] is 0.2 nM.

Source of the values: ChEMBL document CHEMBL3390848, “Affinity selection and sequence-activity relationships of HIV-1 membrane fusion inhibitors directed at the drug-resistant variants” (Medchemcomm, 2010).
